{"source": "patent US20240058347A1", "about": "“DOSAGES FOR HDAC TREATMENT WITH REDUCED SIDE EFFECTS” (VIRACTA THERAPEUTICS, INC., priority 2019, published 2024)", "key": {"[1]": {"target": "HDAC1 (Homo sapiens, UniProt Q13547)", "sequence (Q13547 whole entry)": "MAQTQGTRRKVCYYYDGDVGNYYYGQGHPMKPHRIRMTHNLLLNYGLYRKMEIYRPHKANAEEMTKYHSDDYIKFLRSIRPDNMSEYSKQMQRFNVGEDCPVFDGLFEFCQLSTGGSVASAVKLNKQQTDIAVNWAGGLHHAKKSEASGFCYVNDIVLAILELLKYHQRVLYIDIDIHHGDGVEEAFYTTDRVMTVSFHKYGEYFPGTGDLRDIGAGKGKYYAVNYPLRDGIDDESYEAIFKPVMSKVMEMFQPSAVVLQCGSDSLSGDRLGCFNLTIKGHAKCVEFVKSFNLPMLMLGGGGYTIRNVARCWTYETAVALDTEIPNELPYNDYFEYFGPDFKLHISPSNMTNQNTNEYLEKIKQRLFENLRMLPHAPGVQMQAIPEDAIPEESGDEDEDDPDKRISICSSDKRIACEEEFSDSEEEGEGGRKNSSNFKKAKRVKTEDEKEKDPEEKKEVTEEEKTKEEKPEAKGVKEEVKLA", "assay": "in vitro HDAC inhibition assay (fluorescence), HDAC1", "type": "biochemical", "protocol": "(§1) Briefly, all of the compounds are dissolved in DMSO. A series of dilutions of the compounds were prepared with 10% DMSO in HDAC assay buffer and 5 μl of the dilution was added to a 50 μl reaction so that the final concentration of DMSO is 1% in all of reactions. The compounds were pre-incubated in duplicate at RT for 1 hour in a mixture containing HDAC assay buffer, 5 μg BSA, HDAC enzyme (see Table 7) and a the particular HDACi. After 1 hour, the enzymatic reactions were initiated by the addition of HDAC substrate (BPS Bioscience) to a final concentration of 10 μM or 2 μM. The enzymatic reaction proceeded for 30 minutes at 37° C.\n(§2) HDAC activity assays were performed in duplicates at each concentration. The fluorescent intensity data were analyzed using the computer software, Graphpad Prism. In the absence of the compound, the fluorescent intensity (Ft) in each data set was defined as 100% activity. In the absence of HDAC, the fluorescent intensity (Fb) in each data set was defined as 0% activity. The percent activity in the presence of each compound was calculated according to the following equation: % activity=(F−Fb)/(Ft−Fb), where F=the fluorescent intensity in the presence of the compound. […]"}, "[2]": {"target": "T1, HDAC6 (Homo sapiens, UniProt Q9UBN7)", "T1 sequence (Q9UBN7 1-1215)": "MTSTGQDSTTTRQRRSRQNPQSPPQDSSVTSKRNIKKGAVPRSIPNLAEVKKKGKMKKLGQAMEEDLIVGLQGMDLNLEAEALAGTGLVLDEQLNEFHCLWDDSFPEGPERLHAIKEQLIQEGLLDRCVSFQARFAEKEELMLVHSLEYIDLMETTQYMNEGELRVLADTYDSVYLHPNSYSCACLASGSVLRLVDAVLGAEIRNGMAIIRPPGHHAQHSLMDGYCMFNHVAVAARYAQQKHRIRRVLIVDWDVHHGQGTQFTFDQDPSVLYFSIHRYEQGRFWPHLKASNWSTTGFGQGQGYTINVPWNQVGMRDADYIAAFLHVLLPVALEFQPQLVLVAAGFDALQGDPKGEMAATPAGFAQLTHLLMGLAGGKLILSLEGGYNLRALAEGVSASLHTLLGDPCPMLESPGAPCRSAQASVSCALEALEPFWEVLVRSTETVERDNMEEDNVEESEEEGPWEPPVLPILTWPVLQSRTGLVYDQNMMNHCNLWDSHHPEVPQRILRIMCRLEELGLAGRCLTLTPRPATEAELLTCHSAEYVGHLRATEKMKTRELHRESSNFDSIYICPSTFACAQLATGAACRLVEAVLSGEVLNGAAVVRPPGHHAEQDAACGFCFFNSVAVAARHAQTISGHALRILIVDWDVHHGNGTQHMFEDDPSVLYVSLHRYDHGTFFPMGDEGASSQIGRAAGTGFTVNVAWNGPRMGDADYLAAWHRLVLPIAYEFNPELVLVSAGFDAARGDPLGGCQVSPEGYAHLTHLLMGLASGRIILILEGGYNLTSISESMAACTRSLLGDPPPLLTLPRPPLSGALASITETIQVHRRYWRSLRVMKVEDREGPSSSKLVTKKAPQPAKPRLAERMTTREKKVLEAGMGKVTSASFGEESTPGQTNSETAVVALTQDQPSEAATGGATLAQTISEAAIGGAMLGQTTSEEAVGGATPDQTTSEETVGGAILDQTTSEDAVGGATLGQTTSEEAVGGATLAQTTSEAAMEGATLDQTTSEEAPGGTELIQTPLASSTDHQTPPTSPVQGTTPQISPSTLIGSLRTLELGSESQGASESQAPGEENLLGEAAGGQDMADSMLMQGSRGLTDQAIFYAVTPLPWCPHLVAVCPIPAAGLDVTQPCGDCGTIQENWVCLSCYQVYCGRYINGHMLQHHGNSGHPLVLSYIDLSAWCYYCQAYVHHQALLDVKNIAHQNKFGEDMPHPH", "assay": "biochemical", "protocol": "as §1\nHDAC activity assays were performed in duplicates at each concentration. The fluorescent intensity data were analyzed using the computer software, Graphpad Prism. In the absence of the compound, the fluorescent intensity (Ft) in each data set was defined as 100% activity. In the absence of HDAC, the fluorescent intensity (Fb) in each data set was defined as 0% activity. The percent activity in the presence of each compound was calculated according to the following equation: % activity=(F−Fb)/(Ft−Fb), where F=the fluorescent intensity in the presence of the compound.\nThe values of % activity versus a series of compound concentrations were then plotted using non-linear regression analysis of Sigmoidal dose-response curve generated with the equation Y=B+(T−B)/1+10^((Log C50−X)×Hill Slope), where Y=percent activity, B=minimum percent activity, T=maximum percent activity, X=logarithm of compound and Hill Slope=slope factor or Hill coefficient. The IC50 value was determined by the concentration causing a half-maximal percent activity."}, "[3]": {"target": "HDAC9 (Homo sapiens, UniProt Q9UKV0)", "sequence (Q9UKV0 whole entry)": "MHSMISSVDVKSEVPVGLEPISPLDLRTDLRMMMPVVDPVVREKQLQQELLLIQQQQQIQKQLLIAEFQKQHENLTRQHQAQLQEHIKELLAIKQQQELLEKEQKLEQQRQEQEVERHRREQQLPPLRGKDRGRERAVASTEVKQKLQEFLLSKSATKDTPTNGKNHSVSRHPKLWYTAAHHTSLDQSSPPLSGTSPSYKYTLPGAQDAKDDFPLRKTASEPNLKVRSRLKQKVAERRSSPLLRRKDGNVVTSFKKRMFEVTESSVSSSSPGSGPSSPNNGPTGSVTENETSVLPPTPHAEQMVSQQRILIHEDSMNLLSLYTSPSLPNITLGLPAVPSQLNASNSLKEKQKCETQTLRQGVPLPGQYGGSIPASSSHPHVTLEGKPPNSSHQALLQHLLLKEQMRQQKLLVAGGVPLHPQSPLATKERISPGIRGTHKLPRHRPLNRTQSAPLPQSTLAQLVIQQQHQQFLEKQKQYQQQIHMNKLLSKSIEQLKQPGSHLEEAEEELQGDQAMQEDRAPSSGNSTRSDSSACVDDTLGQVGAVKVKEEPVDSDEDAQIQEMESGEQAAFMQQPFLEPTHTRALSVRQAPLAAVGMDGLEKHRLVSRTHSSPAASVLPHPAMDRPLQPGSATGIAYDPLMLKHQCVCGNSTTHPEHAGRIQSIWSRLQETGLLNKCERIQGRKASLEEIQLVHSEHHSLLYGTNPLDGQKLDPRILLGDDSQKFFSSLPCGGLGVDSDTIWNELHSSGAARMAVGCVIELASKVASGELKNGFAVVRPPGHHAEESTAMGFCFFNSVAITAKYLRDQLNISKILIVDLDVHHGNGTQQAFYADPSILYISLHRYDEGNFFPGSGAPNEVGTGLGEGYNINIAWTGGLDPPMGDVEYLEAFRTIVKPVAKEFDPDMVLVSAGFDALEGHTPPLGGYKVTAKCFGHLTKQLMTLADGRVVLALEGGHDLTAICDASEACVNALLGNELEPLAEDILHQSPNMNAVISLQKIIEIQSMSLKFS", "assay": "in vitro HDAC inhibition assay (fluorescence), HDAC9", "type": "biochemical", "conditions": "HDAC9", "protocol": "as §1, §2"}, "[4]": {"tested_on": "Histone 3 acetylation in peripheral blood mononuclear cells", "assay": "H3 acetylation in peripheral blood mononuclear cells of healthy donors, flow cytometry", "type": "cell-based, humans", "conditions": "PBMC of healthy donors", "description": "Percentage of cells with H3 acetylation, as determined by flow cytometry, is shown.\nSince H3 acetylation is a pharmacodynamic biomarker of Nstat activity, acetylation of H3 was examined in treated cells."}, "[5]": {"tested_on": "P3HR1 Burkitt's lymphoma cells", "assay": "Cell death (7AAD staining) of EBV infected cell line, Nstat 3 days then ganciclovir 3 days", "type": "cell-based", "conditions": "FIG. 4", "protocol": "All test conditions were run in triplicate. Cell death was measured by 7AAD staining."}}}
{"smiles": "O=C(NO)c1cnc(N2CC3C(C2)C3NCc2ccc3cc(F)ccc3n2)nc1", "note": "(stereo not shown) [Nstat, 2-(6-{[(6-Fluoroquinolin-2-yl)methyl]amino}-3-azabicyclo[3.1.0]hex-3-yl)-N-hydroxypyrimidine-5-carboxamide]", "values": [{"measurement": "IC50", "setting": "[1]", "result": 3.6, "unit": "nM"}, {"measurement": "IC50", "setting": "[2]", "result": 450, "unit": "nM"}, {"measurement": "IC50", "setting": "[3]", "result": 440, "unit": "nM"}, {"measurement": "potency in inducing elevated levels of Histone 3 acetylation", "setting": "[4]; even at a dose of 100 nM, FIG. 2", "result": "much more potent than entinostat"}, {"measurement": "duration of effect on H3 acetylation (time-course)", "setting": "[4]; even at doses down to 10 nM, FIG. 3", "result": "long-lasting"}, {"measurement": "increase of cytotoxic activity when combined with Ganciclovir", "setting": "[5]; Nstat 3 days, wash, ganciclovir 3 days", "result": "~40", "unit": "%"}, {"measurement": "increased cytotoxicity with ganciclovir after Nstat removal", "setting": "[5]; after 3 days of washout", "result": "seen even after Nstat removal"}]}
